Experimental data from ChEMBL document CHEMBL3232999, “Computer-aided identification of novel 3,5-substituted rhodanine derivatives with activity against Staphylococcus aureus DNA gyrase” (Bioorg Med Chem, 2014).
In brackets after ≈: the same amount, converted by molar mass. Values belong to the compound of their own block, whether it stands above or below them. Activity calls are given as the source filed them. The calls are words filed in the database; no cut-off is given here.

Assays:
Staphylococcus aureus [1] = assay: Antimicrobial activity against methicillin-resistant Staphylococcus aureus ATCC 33592 after 24 hrs by two-fold serial dilution method; assay type: functional; details: ATCC 33592, 24 h
Staphylococcus aureus [2] = assay: Antimicrobial activity against Staphylococcus aureus ATCC 6538 after 24 hrs by two-fold serial dilution method; assay type: functional; details: ATCC 6538, 24 h
Staphylococcus aureus [3] = assay: Antimicrobial activity against Staphylococcus aureus ISP 794 after 24 hrs by two-fold serial dilution method; assay type: functional; details: ISP 794, 24 h
Staphylococcus aureus [4] = assay: Antimicrobial activity against Staphylococcus aureus carolina after 24 hrs by two-fold serial dilution method; assay type: functional
Escherichia coli [5] = assay: Antimicrobial activity against Escherichia coli MG1655 after 24 hrs by two-fold serial dilution method; assay type: functional; details: MG1655, 24 h
[6] = molecular target: T1, DNA gyrase (Staphylococcus aureus) (UniProt P0A0K8+P20831); assay: Inhibition of Staphylococcus aureus DNA gyrase-mediated supercoiling of relaxed DNA using N0471S as substrate at 20 uM after 30 mins by using […] staining-based agarose gel electrophoresis; assay type: protein-complex assay
Escherichia coli [7] = assay: Inhibition of Escherichia coli DNA gyrase-mediated supercoiling of relaxed DNA using N0471S as substrate after 30 mins by using […] staining-based agarose gel electrophoresis
DNA gyrase subunit B = DNA gyrase subunit B (Staphylococcus aureus, UniProt P0A0K8); assay: Inhibition of Staphylococcus aureus DNA gyrase subunit B ATPase activity assessed as consumption of inorganic phosphate by PNP-based absorbance assay
[8] = molecular target: DNA gyrase subunit B (Staphylococcus aureus) (UniProt P0A0K8); assay: Inhibition of Staphylococcus aureus DNA gyrase subunit B ATPase activity assessed as consumption of inorganic phosphate at 30 uM by PNP-based absorbance assay relative to control; values are per cent of control
[9] = molecular target: DNA gyrase subunit B (Staphylococcus aureus) (UniProt P0A0K8); assay: Inhibition of Staphylococcus aureus DNA gyrase subunit B ATPase activity assessed as consumption of inorganic phosphate at 10 uM by PNP-based absorbance assay relative to control; values are per cent of control
[10] = molecular target: DNA gyrase subunit B (Staphylococcus aureus) (UniProt P0A0K8); assay: Inhibition of Staphylococcus aureus DNA gyrase subunit B ATPase activity assessed as consumption of inorganic phosphate at 300 uM by PNP-based absorbance assay relative to control; values are per cent of control
[11] = molecular target: DNA gyrase subunit B (Staphylococcus aureus) (UniProt P0A0K8); assay: Inhibition of Staphylococcus aureus DNA gyrase subunit B ATPase activity assessed as consumption of inorganic phosphate at 100 uM by PNP-based absorbance assay relative to control; values are per cent of control
[12] = molecular target: T1, DNA gyrase (Staphylococcus aureus); assay: Inhibition of Staphylococcus aureus DNA gyrase-mediated supercoiling of relaxed DNA using N0471S as substrate at 160 uM after 30 mins by using […] staining-based agarose gel electrophoresis; assay type: protein-complex assay
[13] = molecular target: T1, DNA gyrase (Staphylococcus aureus); assay: Inhibition of Staphylococcus aureus DNA gyrase-mediated supercoiling of relaxed DNA using N0471S as substrate at 160 to 500 uM after 30 mins by using […] staining-based agarose gel electrophoresis; assay type: protein-complex assay

SMILES: Cc1cccc(NS(=O)(=O)c2cc(C(N)=O)ccc2Cl)c1C
- MIC (Staphylococcus aureus [1]): 62.5 µg/mL (≈ 184 µM)
- MIC (Staphylococcus aureus [2]): 62.5 µg/mL (≈ 184 µM)

SMILES: CC(=O)Oc1ccc([C@@H]2Oc3nc(SCc4ccccc4Cl)nnc3-c3ccccc3N2C(C)=O)cc1Br
- MIC (Staphylococcus aureus [1]): 512 µg/mL (≈ 838 µM)
- MIC (Staphylococcus aureus [2]): 512 µg/mL (≈ 838 µM)

SMILES: COc1cc([C@H]2OC[C@H]3[C@H]2CO[C@@H]3c2ccc(O)c(OC)c2)ccc1O
- MIC (Staphylococcus aureus [1]): 500 µg/mL (≈ 1400 µM)
- MIC (Staphylococcus aureus [2]): 62.5 µg/mL (≈ 174 µM)

SMILES: COc1ccc(N(CC(=O)Nc2ccccc2C(N)=O)S(=O)(=O)c2ccccc2)c(OC)c1
- MIC (Staphylococcus aureus [1]): 250 µg/mL (≈ 532 µM)
- MIC (Staphylococcus aureus [2]): 62.5 µg/mL (≈ 133 µM)

- MIC (Staphylococcus aureus [3]): 31 µM (≈ 12.5 µg/mL)
- MIC (Staphylococcus aureus [4]): 46.5 µM (≈ 18.8 µg/mL)
- MIC (Escherichia coli [5]): > 100 µg/mL
- inhibition [6]: inactive
- inhibition (Escherichia coli [7]): inactive
- IC50 (DNA gyrase subunit B): 100 µM
- residual activity [8]: 76%
- residual activity [9]: 84%
- residual activity [10]: 25%
- residual activity [11]: 52%
SMILES: O=C(O)C[C@H](c1ccccc1)N1C(=O)/C(=C/c2ccccc2Cl)SC1=S

- MIC (Staphylococcus aureus [3]): 13.5 µM (≈ 4.61 µg/mL)
- MIC (Staphylococcus aureus [4]): 27 µM (≈ 9.22 µg/mL)
- MIC (Escherichia coli [5]): > 100 µg/mL
- inhibition [12]: Active
- inhibition (Escherichia coli [7]): inactive
SMILES: CCc1ccccc1N1C(=O)/C(=C/c2cccc(O)c2)SC1=S

SMILES: CO[C@@H]1[C@@H](OC(N)=O)[C@@H](O)[C@H](Oc2ccc3c(O)c(NC(=O)c4ccc(O)c(CC=C(C)C)c4)c(=O)oc3c2C)OC1(C)C [NOVOBIOCIN]
- MIC (Staphylococcus aureus [3]): < 1.27 µM
- MIC (Staphylococcus aureus [4]): < 1.27 µM
- MIC (Staphylococcus aureus [1]): < 1.95 µg/mL
- inhibition (Escherichia coli [7]): inactive

SMILES: COc1cccc([C@@H]2Nc3c(ccc(C(=O)O)c3C)[C@H]3C=CC[C@H]32)c1
- MIC (Staphylococcus aureus [1]): 125 µg/mL (≈ 373 µM)
- MIC (Staphylococcus aureus [2]): 62.5 µg/mL (≈ 186 µM)

SMILES: NC(=O)NC(=O)COC(=O)c1ccc(Cl)c(S(=O)(=O)N(Cc2ccccc2)c2ccc(Cl)cc2)c1
- MIC (Staphylococcus aureus [1]): 500 µg/mL (≈ 932 µM)
- MIC (Staphylococcus aureus [2]): 125 µg/mL (≈ 233 µM)

- MIC (Staphylococcus aureus [3]): 159 µM (≈ 75.1 µg/mL)
- MIC (Staphylococcus aureus [4]): 159 µM (≈ 75.1 µg/mL)
- MIC (Escherichia coli [5]): > 100 µg/mL
- inhibition [13]: Active
- inhibition [6]: inactive
- inhibition (Escherichia coli [7]): inactive
- IC50 (DNA gyrase subunit B): 30 µM
- residual activity [8]: 66%
- residual activity [9]: 84%
- residual activity [10]: 23%
- residual activity [11]: 23%
SMILES: O=C(O)C[C@H](C(=O)O)N1C(=O)/C(=C\c2ccc(-c3cc(Cl)ccc3Cl)o2)SC1=S

SMILES: COc1cc([C@@H]2C3=C(CCCC3=O)Nc3[nH]c(SCc4ccccc4Cl)nc(=O)c32)ccc1O
- MIC (Staphylococcus aureus [1]): 500 µg/mL (≈ 1010 µM)
- MIC (Staphylococcus aureus [2]): 500 µg/mL (≈ 1010 µM)

SMILES: O=C1C[C@H](c2cccc(O)c2)Nc2ccc3ccccc3c21
- MIC (Staphylococcus aureus [1]): 62.5 µg/mL (≈ 216 µM)
- MIC (Staphylococcus aureus [2]): 62.5 µg/mL (≈ 216 µM)

SMILES: COc1ccc(C(=O)C2=C(O)C(=O)N(CCc3c[nH]c4ccccc34)[C@@H]2c2ccccc2Cl)cc1
- MIC (Staphylococcus aureus [1]): 253 µg/mL (≈ 520 µM)
- MIC (Staphylococcus aureus [2]): 253 µg/mL (≈ 520 µM)

SMILES: Cc1cccc([C@]2(C)CC(C)(C)N(C(=O)CSc3nc[nH]n3)c3ccccc32)c1
- MIC (Staphylococcus aureus [1]): 500 µg/mL (≈ 1230 µM)
- MIC (Staphylococcus aureus [2]): 125 µg/mL (≈ 307 µM)

SMILES: CCOC(=O)C1=c2s/c(=C/c3ccccc3I)c(=O)n2C(N)=C(C#N)[C@@H]1c1ccccc1I
- MIC (Staphylococcus aureus [1]): 264 µg/mL (≈ 387 µM)
- MIC (Staphylococcus aureus [2]): 264 µg/mL (≈ 387 µM)

SMILES: C/C(=N\NC(=O)c1nnn(-c2nonc2N)c1CN1CCc2ccccc21)c1ccc(O)cc1O
- MIC (Staphylococcus aureus [1]): 525 µg/mL (≈ 1100 µM)
- MIC (Staphylococcus aureus [2]): 525 µg/mL (≈ 1100 µM)
